# Source: US20100137346A1, “DESFE[…] ACTINIDE DEC[…]” (priority 2006, published 2010)
# Read-outs that look alike come from different tables or passages of the source.
# Test: Chelator-induced uranium excretion (urine + bile, 24 h) in bile duct-cannulated rat model
# Type: in vivo
# Settings: for response vs control in vivo at 300 µmol/kg: Rattus norvegicus, ip, 24 h, read-out: Chelator-Induced U Excretion/Control
# Description: Desferrithiocin Analogue Induced Excretion of Uranium. In order to compare results with previous chelator-induced iron excretion data, the uranium clearance studies were carried out in a bile duct-cannulated rat model. The animals were given uranyl acetate dihydrate SC at a dose of 5 mg/kg (the actual dose of uranium is 2.8 mg/kg). Bile and urine samples were collected for 24 hours after dosing. Kidneys were removed from selected animals and tissue uranium concentration measured. At least three animals were utilized in each experimental group. Data from two separate control studies (uranyl acetate/ no chelator) have now been combined for a total of 14 control animals. All uranium concentrations were measured using ICPMS. The data are reported as the total quantity of uranium excreted [urine +bile]; the mode of excretion [urine/bile] is also given. In addition the percentage of the administered dose of uranium cleared and chelator-induced uranium excretion vs the controls is also given. Four positive controls were evaluated: DTPA (13, Table 1) given as its trisodium calcium salt, DFO (14), N,N′-bis(2hydroxybenzyl)ethylenediamine-N,N′-diacetic acid, monosodium salt (NaHBED, 15) and the hydroxypyridone CP94 (16) shown to bind uranium [Pashalidis, et al., Effective complex formation in the interaction of 1,2-dimethyl-3-hydroxypyrid-4-one (Deferiprone or L1) with uranium(VI), Journal of Radioanalytical and Nuclear Chemistry 1999; 242:181-184.] The total metal cleared after 24 h in control rats was 10% of the administered dose. When DTPA, 13, was given IP or PO at 300 μmol/kg immediately after uranium, the excretion was 17% and 8% of the administered dose respectively (p>0.05). However, when the drug was given IP at a dose of 600 μmol/kg immediately post-metal, the uranium excretion was significant, 20% (p<0.005). This is consistent with previously published data using a similar animal model.[Domingo, et al., Comparative effects of the chelators sodium 4,5-dihydroxybenzene-1,3-disulfonate (Tiron) and diethylenetriaminepentaacetic acid (DTPA) on acute uranium nephrotoxicity in rats, Toxicology 1997; 118:49-59] DFO (14) and CP94 (16) given IP immediately post uranyl acetate were ineffective.
# Desferrithiocin Analogue-Induced Excretion of Uranium. In order to compare results with previous chelator-induced iron excretion data, the uranium clearance studies were carried out in a bile duct-cannulated rat model. The animals were given uranyl acetate dihydrate SC at a dose of 5 mg/kg (the actual dose of uranium is 2.8 mg/kg). Bile and urine samples were collected for 24 hours after dosing. Kidneys were removed from selected animals and tissue uranium concentration measured. At least three animals were utilized in each experimental group. Data from two separate control studies (uranyl acetate/ no chelator) are combined for a total of 14 control animals. All uranium concentrations were measured using ICPMS. The data are reported as the total quantity of uranium excreted [urine +bile]; the mode of excretion [urine/bile] is also given. In addition the percentage of the administered dose of uranium cleared and chelator-induced uranium excretion vs the controls is also given. Four positive controls were evaluated: DTPA (1, Table 1) given as its trisodium calcium salt, DFO (2), N,N -bis(2-hydroxybenzyl)ethylenediamine-N,N-diacetic acid, monosodium salt (NaHBED, 3) and the hydroxypyridone CP94 (4) shown to bind uranium. The total metal cleared after 24 h in control rats was 10% of the administered dose. When DTPA, 1, was given IP or PO at 300 μmol/kg immediately after uranium, the excretion was 17% and 8% of the administered dose respectively (p>0.05). However, when the drug was given IP at a dose of 600 μmol/kg immediately post metal, the uranium excretion was significant, 20% (p<0.005). This is consistent with previously published data using a similar animal model.^2 DFO (2) and CP94 (4) given IP immediately post uranyl acetate were ineffective.
structure (smiles),measurement,setting,value
COc1ccc(C2=N[C@](C)(C(=O)O)CS2)c(O)c1,% of Administered Dose Cleared,300 μmol/kg IP 0.5 h Post,15%
same,Uranium Excretion,300 μmol/kg IP 0.5 h Post,413 ± 148 µg/kg
same,Uranium Excretion [urine/bite],300 μmol/kg IP 0.5 h Post,37/63
same,% of Administered Dose Cleared,300 μmol/kg IP Immediate,20%
same,Uranium Excretion,300 μmol/kg IP Immediate,568 ± 133 µg/kg
same,Uranium Excretion [urine/bite],300 μmol/kg IP Immediate,59/41
same,response vs control in vivo at 300 µmol/kg,300 μmol/kg IP 0.5 h Post,150%
same,response vs control in vivo at 300 µmol/kg,300 μmol/kg IP Immediate,200%
COc1ccc(C2=N[C@@H](C(=O)O)CS2)c(O)c1 [drawing 12],% of Administered Dose Cleared,300 μmol/kg IP 0.5 h Post,33%
same,Chelator-Induced U Excretion/Control,300 μmol/kg IP 0.5 h Post,3.3
same,Uranium Excretion,300 μmol/kg IP 0.5 h Post,917 ± 177 µg/kg
same,Uranium Excretion [urine/bite],300 μmol/kg IP 0.5 h Post,[16/84]
same,% of Administered Dose Cleared,300 μmol/kg IP 0.5 h Pre,29%
same,Chelator-Induced U Excretion/Control,300 μmol/kg IP 0.5 h Pre,2.9
same,Uranium Excretion,300 μmol/kg IP 0.5 h Pre,815 ± 211 µg/kg
same,Uranium Excretion [urine/bite],300 μmol/kg IP 0.5 h Pre,48/52
same,% of Administered Dose Cleared,300 μmol/kg IP 2 h Post,30%
same,Chelator-Induced U Excretion/Control,300 μmol/kg IP 2 h Post,3.0
same,Uranium Excretion,300 μmol/kg IP 2 h Post,847 ± 335 µg/kg
same,Uranium Excretion [urine/bite],300 μmol/kg IP 2 h Post,[46/54]
same,% of Administered Dose Cleared,300 μmol/kg IP 4 h Post,16%
same,Chelator-Induced U Excretion/Control,300 μmol/kg IP 4 h Post,1.6
same,Uranium Excretion,300 μmol/kg IP 4 h Post,444 ± 119 µg/kg
same,Uranium Excretion [urine/bite],300 μmol/kg IP 4 h Post,[66/34]
same,% of Administered Dose Cleared,300 μmol/kg IP Immediate,30%
same,Chelator-Induced U Excretion/Control,300 μmol/kg IP Immediate,3.0
same,Uranium Excretion,300 μmol/kg IP Immediate,838 ± 166 µg/kg
same,Uranium Excretion [urine/bite],300 μmol/kg IP Immediate,[64/36]
same,% of Administered Dose Cleared,300 μmol/kg PO 2 h Post,18%
same,Chelator-Induced U Excretion/Control,300 μmol/kg PO 2 h Post,1.8
same,Uranium Excretion,300 μmol/kg PO 2 h Post,507 ± 182 µg/kg
same,Uranium Excretion [urine/bite],300 μmol/kg PO 2 h Post,[53/47]
same,% of Administered Dose Cleared,300 μmol/kg PO Immediate,23%
same,Chelator-Induced U Excretion/Control,300 μmol/kg PO Immediate,2.3
same,Uranium Excretion,300 μmol/kg PO Immediate,642 ± 101 µg/kg
same,Uranium Excretion [urine/bite],300 μmol/kg PO Immediate,[43/57]
same,% of Administered Dose Cleared,300 μmol/kg SC Immediate,40%
same,Chelator-Induced U Excretion/Control,300 μmol/kg SC Immediate,4.0
same,Uranium Excretion,300 μmol/kg SC Immediate,1130 ± 245 µg/kg
same,Uranium Excretion [urine/bite],300 μmol/kg SC Immediate,[13/87]
same,% of Administered Dose Cleared,600 μmol/kg PO 0.5 h Post,25%
same,Chelator-Induced U Excretion/Control,600 μmol/kg PO 0.5 h Post,2.5
same,Uranium Excretion,600 μmol/kg PO 0.5 h Post,698 ± 166 µg/kg
same,Uranium Excretion [urine/bite],600 μmol/kg PO 0.5 h Post,[24/76]
same,% of Administered Dose Cleared,600 μmol/kg PO 1 h Post,26%
same,Chelator-Induced U Excretion/Control,600 μmol/kg PO 1 h Post,2.6
same,Uranium Excretion,600 μmol/kg PO 1 h Post,723 ± 128 µg/kg
same,Uranium Excretion [urine/bite],600 μmol/kg PO 1 h Post,[28/72]
CC(=O)N(O)CCCNC(=O)CCC(=O)N(O)CCCCCNC(=O)CCC(=O)N(O)CCCN,% of Administered Dose Cleared,300 μmol/kg IP Immediate,16%
same,Uranium Excretion,300 μmol/kg IP Immediate,438 ± 191 µg/kg
same,Uranium Excretion [urine/bite],300 μmol/kg IP Immediate,100/0
same,response vs control in vivo at 300 µmol/kg,300 μmol/kg IP Immediate,160%
COCCOCCOCCOc1ccc(C2=N[C@](C)(C(=O)O)CS2)c(O)c1,% of Administered Dose Cleared,300 μmol/kg IP Immediate,22%
same,Uranium Excretion,300 μmol/kg IP Immediate,626 ± 123 µg/kg
same,Uranium Excretion [urine/bite],300 μmol/kg IP Immediate,35/65
same,response vs control in vivo at 300 µmol/kg,300 μmol/kg IP Immediate,220%
O=C(O)CN(CCN(CC(=O)O)CC(=O)O)CCN(CC(=O)O)CC(=O)O [drawing 16],% of Administered Dose Cleared,300 μmol/kg IP Immediate,17%
same,Chelator-Induced U Excretion/Control,300 μmol/kg IP Immediate,1.7
same,Uranium Excretion,300 μmol/kg IP Immediate,469 ± 271 µg/kg
same,Uranium Excretion [urine/bite],300 μmol/kg IP Immediate,99/1
same,% of Administered Dose Cleared,300 μmol/kg PO Immediate,8%
same,Chelator-Induced U Excretion/Control,300 μmol/kg PO Immediate,0.8
same,Uranium Excretion,300 μmol/kg PO Immediate,235 ± 205 µg/kg
same,Uranium Excretion [urine/bite],300 μmol/kg PO Immediate,100/0
same,% of Administered Dose Cleared,600 μmol/kg IP Immediate,20%
same,Chelator-Induced U Excretion/Control,600 μmol/kg IP Immediate,2.0
same,Uranium Excretion,600 μmol/kg IP Immediate,548 ± 147 µg/kg
same,Uranium Excretion [urine/bite],600 μmol/kg IP Immediate,100/0
